Test results: ChEMBL document CHEMBL3390836, “Mannich- and LedererManasse-based analogues of the natural product S-(+)-curcuphenol as cancer proliferation and migration inhibitors” (Medchemcomm, 2012)

What was measured:
MDA-MB-231 = test: Cytotoxicity against human MDA-MB-231 cells assessed as growth inhibition after 24 hrs by MTT assay; type: cell-based; settings: MDA-MB-231, 24 h
SNB-75 = test: Cytotoxicity against human SNB75 cells assessed as cell growth at 10 uM after 48 hrs by SRB assay relative to control; type: functional; settings: SNB-75, 48 h, read-out: Activity
SK-MEL-2 = test: Cytotoxicity against human SK-MEL-2 cells assessed as cell growth at 10 uM after 48 hrs by SRB assay relative to control; type: functional; settings: SK-MEL-2, 48 h, read-out: Activity
A549 = test: Cytotoxicity against human A549 cells assessed as cell growth at 10 uM after 48 hrs by SRB assay relative to control; type: functional; settings: A549, 48 h, read-out: Activity
[1] = Cytotoxicity against human SKOV3 cells assessed as cell growth at 10 uM after 48 hrs by SRB assay relative to control; type: functional; settings: SK-OV-3, 48 h, read-out: Activity
SF-539 = test: Cytotoxicity against human SF539 cells assessed as cell growth at 10 uM after 48 hrs by SRB assay relative to control; type: functional; settings: SF-539, 48 h, read-out: Activity
MCF7 = test: Growth inhibition of human MCF7 cells after 72 hrs by MTT assay; type: functional, cell-based; settings: MCF7, 72 h
HCC 2998 = test: Cytotoxicity against human HCC2998 cells assessed as cell growth at 10 uM after 48 hrs by SRB assay relative to control; type: functional; settings: HCC 2998, 48 h, read-out: Activity
[2] = Cytotoxicity against human OVCAR8 cells assessed as cell growth at 10 uM after 48 hrs by SRB assay relative to control; type: functional; settings: OVCAR-8, 48 h, read-out: Activity
SN12C = test: Cytotoxicity against human SN12C cells assessed as cell growth at 10 uM after 48 hrs by SRB assay relative to control; type: functional; settings: read-out: Activity
KM12 = test: Cytotoxicity against human KM12 cells assessed as cell growth at 10 uM after 48 hrs by SRB assay relative to control; type: functional; settings: KM12, 48 h, read-out: Activity
CCRF-CEM = test: Cytotoxicity against human CCRF-CEM cells assessed as cell growth at 10 uM after 48 hrs by SRB assay relative to control; type: functional; settings: read-out: Activity
[3] = Cytotoxicity against human HCT116 cells assessed as cell growth at 10 uM after 48 hrs by SRB assay relative to control; type: functional; settings: HCT-116, 48 h, read-out: Activity
RXF 393 = test: Cytotoxicity against human RXF393 cells assessed as cell growth at 10 uM after 48 hrs by SRB assay relative to control; type: functional; settings: RXF 393, 48 h, read-out: Activity
ACHN = test: Cytotoxicity against human ACHN cells assessed as cell growth at 10 uM after 48 hrs by SRB assay relative to control; type: functional; settings: read-out: Activity
[4] = Cytotoxicity against human OVCAR5 cells assessed as cell growth at 10 uM after 48 hrs by SRB assay relative to control; type: functional; settings: OVCAR-5, 48 h, read-out: Activity
A498 = test: Cytotoxicity against human A498 cells assessed as cell growth at 10 uM after 48 hrs by SRB assay relative to control; type: functional; settings: A498, 48 h, read-out: Activity
U-251 = test: Cytotoxicity against human U251 cells assessed as cell growth at 10 uM after 48 hrs by SRB assay relative to control; type: functional; settings: U-251, 48 h, read-out: Activity
[5] = Cytotoxicity against human PC3 cells assessed as cell growth at 10 uM after 48 hrs by SRB assay relative to control; type: functional; settings: PC-3, 48 h, read-out: Activity
TK-10 = test: Cytotoxicity against human TK10 cells assessed as cell growth at 10 uM after 48 hrs by SRB assay relative to control; type: functional; settings: TK-10, 48 h, read-out: Activity
SK-MEL-5 = test: Cytotoxicity against human SK-MEL-5 cells assessed as cell growth at 10 uM after 48 hrs by SRB assay relative to control; type: functional; settings: SK-MEL-5, 48 h, read-out: Activity
COLO 205 = test: Cytotoxicity against human COLO205 cells assessed as cell growth at 10 uM after 48 hrs by SRB assay relative to control; type: functional; settings: COLO 205, 48 h, read-out: Activity
HOP-62 = test: Cytotoxicity against human HOP62 cells assessed as cell growth at 10 uM after 48 hrs by SRB assay relative to control; type: functional; settings: HOP-62, 48 h, read-out: Activity
RPMI-8226 = test: Cytotoxicity against human RPMI8226 cells assessed as cell growth at 10 uM after 48 hrs by SRB assay relative to control; type: functional; settings: RPMI-8226, 48 h, read-out: Activity
[6] = Cytotoxicity against human UACC257 cells assessed as cell growth at 10 uM after 48 hrs by SRB assay relative to control; type: functional; settings: UACC-257, 48 h, read-out: Activity
IGROV-1 = test: Cytotoxicity against human IGROV1 cells assessed as cell growth at 10 uM after 48 hrs by SRB assay relative to control; type: functional; settings: IGROV-1, 48 h, read-out: Activity
HL-60(TB) = test: Cytotoxicity against human HL-60(TB) cells assessed as cell growth at 10 uM after 48 hrs by SRB assay relative to control; type: functional; settings: HL-60, 48 h, read-out: Activity
T47D = test: Cytotoxicity against human T47D cells assessed as cell growth at 10 uM after 48 hrs by SRB assay relative to control; type: functional; settings: read-out: Activity
SNB-19 = test: Cytotoxicity against human SNB19 cells assessed as cell growth at 10 uM after 48 hrs by SRB assay relative to control; type: functional; settings: SNB-19, 48 h, read-out: Activity
HT-29 = test: Cytotoxicity against human HT-29 cells assessed as cell growth at 10 uM after 48 hrs by SRB assay relative to control; type: functional; settings: HT-29, 48 h, read-out: Activity
[7] = Cytotoxicity against human Hs 578T cells assessed as cell growth at 10 uM after 48 hrs by SRB assay relative to control; type: functional; settings: read-out: Activity
786-0 = test: Cytotoxicity against human 786-0 cells assessed as cell growth at 10 uM after 48 hrs by SRB assay relative to control; type: functional; settings: 786-0, 48 h, read-out: Activity
[8] = Cytotoxicity against human NCI-ADR-RES cells assessed as cell growth at 10 uM after 48 hrs by SRB assay relative to control; type: functional; settings: read-out: Activity
[9] = Cytotoxicity against human OVCAR3 cells assessed as cell growth at 10 uM after 48 hrs by SRB assay relative to control; type: functional; settings: OVCAR-3, 48 h, read-out: Activity
[10] = Cytotoxicity against human HCT15 cells assessed as cell growth at 10 uM after 48 hrs by SRB assay relative to control; type: functional; settings: HCT-15, 48 h, read-out: Activity
K562 = test: Cytotoxicity against human K562 cells assessed as cell growth at 10 uM after 48 hrs by SRB assay relative to control; type: functional; settings: K562, 48 h, read-out: Activity

For CC(C)=CCC[C@H](C)c1ccc(C)c(CNCCCCC(=O)O)c1O, the IC50 (MDA-MB-231) was over 20 µM, the growth at 10 µM (SNB-75) was 95.4% and the growth at 10 µM (SK-MEL-2) was 104%. It also gave a growth at 10 µM (A549) of 95.8%, a growth at 10 µM [1] of 105% and a growth at 10 µM (SF-539) of 111%. For the same molecule, the IC50 (MCF7) was over 20 µM, the growth at 10 µM (HCC 2998) was 101% and the growth at 10 µM [2] was 94.1%. The growth at 10 µM (SN12C) was 102%, the growth at 10 µM (KM12) was 102% and the growth at 10 µM (CCRF-CEM) was 97.9%. The growth at 10 µM [3] was 101%, the growth at 10 µM (RXF 393) was 121% and the growth at 10 µM (ACHN) was 102%. It also gave a growth at 10 µM [4] of 102%, a growth at 10 µM (A498) of 92.3% and a growth at 10 µM (U-251) of 98.1%. The growth at 10 µM [5] was 98%, the growth at 10 µM (TK-10) was 105% and the growth at 10 µM (SK-MEL-5) was 98.4%. It also gave a growth at 10 µM (COLO 205) of 119%, a growth at 10 µM (HOP-62) of 106% and a growth at 10 µM (RPMI-8226) of 95.1%. It also gave a growth at 10 µM [6] of 101%, a growth at 10 µM (IGROV-1) of 105% and a growth at 10 µM (HL-60(TB)) of 84.6%. The growth at 10 µM (T47D) was 113%, the growth at 10 µM (SNB-19) was 103% and the growth at 10 µM (HT-29) was 101%. It also gave a growth at 10 µM [7] of 102%, a growth at 10 µM (786-0) of 100% and a growth at 10 µM [8] of 103%. For the same molecule, the growth at 10 µM [9] was 108%, the growth at 10 µM [10] was 105% and the growth at 10 µM (K562) was 96.1%.
In the case of CC(C)=CCC[C@H](C)c1ccc(C)c2c1OCN(CCCCCO)C2, the IC50 (MDA-MB-231) is reported as over 20 µM, the growth at 10 µM (SNB-75) is reported as 85.6% and the growth at 10 µM (SK-MEL-2) is reported as 92.7%. For the same molecule, the growth at 10 µM (A549) was 82.5%, the growth at 10 µM [1] was 88.8% and the growth at 10 µM (SF-539) was 84.5%. It also gave an IC50 (MCF7) of 6.9 µM, a growth at 10 µM (HCC 2998) of 73.5% and a growth at 10 µM [2] of 90.1%. The growth at 10 µM (SN12C) was 78.6%, the growth at 10 µM (KM12) was 104% and the growth at 10 µM (CCRF-CEM) was 96%. The growth at 10 µM [3] was 68.6%, the growth at 10 µM (RXF 393) was 90.1% and the growth at 10 µM (ACHN) was 94.1%. The growth at 10 µM [4] was 87.4%, the growth at 10 µM (A498) was 75.3% and the growth at 10 µM (U-251) was 83.8%. The growth at 10 µM [5] was 68.6%, the growth at 10 µM (TK-10) was 73.7% and the growth at 10 µM (SK-MEL-5) was 91.7%. The growth at 10 µM (COLO 205) was 90%, the growth at 10 µM (HOP-62) was 92.5% and the growth at 10 µM (RPMI-8226) was 76.7%. It also gave a growth at 10 µM [6] of 78.4%, a growth at 10 µM (IGROV-1) of 90.4% and a growth at 10 µM (HL-60(TB)) of 51.7%. It also gave a growth at 10 µM (T47D) of 88.1%, a growth at 10 µM (SNB-19) of 88.8% and a growth at 10 µM (HT-29) of 27.2%. The growth at 10 µM [7] was 81.2%, the growth at 10 µM (786-0) was 69.5% and the growth at 10 µM [8] was 76%. It also gave a growth at 10 µM [9] of 99.7%, a growth at 10 µM [10] of 94% and a growth at 10 µM (K562) of 31.1%.
